Values quoted from earlier work in patent publication US20250161331A1, “ANTI-INFLAMMATORY DRUG-CANNABINOID-COMPRISING NANOEMULSIONS AND METHODS OF USING THE SAME” (SGN Nanopharma Inc., priority 2022, published 2025).
Where two headings read alike, the source gives them in different places.

SMILES: C=C(C)[C@@H]1CCC(C)=C[C@H]1c1c(O)cc(CCCCC)cc1O [CBD, Cannabidiol]
- CBD concentrations decreased (cannabis oil formulations, same timeframe (3-7 days)): up to 38%
- CBD concentrations decreased (solution as a tea, room temperature, 3-7 days): ≤ 50%
